Experimental data: ChEMBL document CHEMBL1201862, “PubChem BioAssay data set” (2004)
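Where inhibition never reached the appropriate level, the endpoint shown equals the highest concentration tested. Otherwise, values were interpolated linearly from a five-concentration, 48-hour dose response in 96-well plates. At the GI50, growth is halved.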 Active and inactive are the calls of the source. No stated cut-off is given here; in the data, active = GI50 up to about 1.1 µM and inactive = higher.

Experiments:
Assay in all cases: DTP human tumour cell line panel, 48 h
786-0 = tested on: 786-0
CCRF-CEM = tested on: CCRF-CEM
DMS-273 = tested on: DMS-273
HOP-62 = tested on: HOP-62
HOP-92 = tested on: HOP-92
Malme-3M = tested on: Malme-3M
NCI-H460 = tested on: NCI-H460
OVCAR-3 = tested on: OVCAR-3
SF-295 = tested on: SF-295
SK-MEL-28 = tested on: SK-MEL-28
SK-MEL-2 = tested on: SK-MEL-2
SK-MEL-5 = tested on: SK-MEL-5
SN12C = tested on: SN12C
HCT-116 = tested on: HCT-116
IGROV-1 = tested on: IGROV-1
M19-MEL = tested on: M19-MEL

Measured: GI50

O=C(CC1(O)C(=O)Nc2c(Cl)cccc21)c1ccccc1 (stereo not given)
inactive: 786-0 > 100 µM | CCRF-CEM > 100 µM | DMS-273 > 100 µM | HOP-62 > 100 µM | HOP-92 > 100 µM | Malme-3M > 100 µM | NCI-H460 > 100 µM | OVCAR-3 > 100 µM | SF-295 > 100 µM | SK-MEL-28 > 100 µM | SK-MEL-2 > 100 µM | SK-MEL-5 > 100 µM | SN12C > 100 µM

CN1C(c2ccccc2)CC(=Nc2ccccc2)CC1c1ccccc1 (stereo not given)
inactive: 786-0 14.2 µM | CCRF-CEM 16.2 µM | DMS-273 8.79 µM | HCT-116 4.91 µM | HOP-62 18 µM | HOP-92 7.78 µM | IGROV-1 12.6 µM | M19-MEL 4.58 µM | Malme-3M 10.8 µM | NCI-H460 13.5 µM | OVCAR-3 8.93 µM | SF-295 15.6 µM | SK-MEL-28 10.8 µM | SK-MEL-5 10.9 µM

CN(C)CC1CCC/C1=N/OC(=O)c1ccccc1 (stereo not given)
inactive: 786-0 > 100 µM | CCRF-CEM > 100 µM | DMS-273 > 100 µM | HCT-116 > 100 µM | HOP-62 > 100 µM | HOP-92 > 100 µM | IGROV-1 > 100 µM | M19-MEL > 100 µM | NCI-H460 > 100 µM | OVCAR-3 > 100 µM | SF-295 > 100 µM | SK-MEL-28 > 100 µM | SK-MEL-2 > 100 µM | SK-MEL-5 > 100 µM | SN12C > 100 µM

N#CNCC(COCc1ccccc1)c1ccccc1 (stereo not given)
inactive: 786-0 > 100 µM | CCRF-CEM > 100 µM | DMS-273 94.4 µM | HCT-116 > 100 µM | HOP-62 > 100 µM | HOP-92 > 100 µM | IGROV-1 > 100 µM | M19-MEL > 100 µM | Malme-3M > 100 µM | NCI-H460 > 100 µM | SK-MEL-28 > 100 µM | SK-MEL-2 43.5 µM | SK-MEL-5 49.2 µM | SN12C > 100 µM

CCOC(=O)C(Sc1ccccc1)c1c(OC)cc(=O)oc1/C=[N+](/[O-])c1ccc(N(C)C)cc1 (stereo not given)
inactive: 786-0 19.7 µM | CCRF-CEM 4.52 µM | DMS-273 14 µM | HOP-62 66.4 µM | IGROV-1 42.4 µM | M19-MEL 19.8 µM | Malme-3M 17.2 µM | NCI-H460 27.9 µM | OVCAR-3 13.2 µM | SF-295 24.4 µM | SK-MEL-28 17.5 µM | SK-MEL-2 24.9 µM | SK-MEL-5 20 µM | SN12C 16.2 µM

CC12O[Te]34OC1(C)C(C)(O3)C2(C)O4
inactive: 786-0 15.3 µM | DMS-273 16.4 µM | HCT-116 11.9 µM | HOP-62 20.4 µM | IGROV-1 11.9 µM | M19-MEL 13.5 µM | Malme-3M 18.1 µM | NCI-H460 15.3 µM | OVCAR-3 17.9 µM | SF-295 3.86 µM | SK-MEL-28 12 µM | SK-MEL-2 15.7 µM | SN12C 10.9 µM

C=C1CCC2C(C)(CO)C(O)CCC2(C)C1CC(O)/C(=C/CO)C(=O)O (stereo not given)
inactive: 786-0 > 100 µM | CCRF-CEM > 100 µM | DMS-273 > 100 µM | HCT-116 > 100 µM | HOP-62 > 100 µM | HOP-92 > 100 µM | IGROV-1 > 100 µM | M19-MEL > 100 µM | Malme-3M > 100 µM | NCI-H460 > 100 µM | SF-295 > 100 µM | SK-MEL-2 > 100 µM | SK-MEL-5 > 100 µM | SN12C > 100 µM

COc1ccc(C(N)=O)c(OC)c1OCc1ccccc1
inactive: 786-0 > 100 µM | CCRF-CEM > 100 µM | DMS-273 > 100 µM | HCT-116 > 100 µM | HOP-62 > 100 µM | HOP-92 > 100 µM | IGROV-1 > 100 µM | M19-MEL > 100 µM | NCI-H460 > 100 µM | OVCAR-3 > 100 µM | SF-295 > 100 µM | SK-MEL-28 > 100 µM | SK-MEL-2 > 100 µM | SK-MEL-5 > 100 µM | SN12C > 100 µM

O=C(O)c1cc2c(ncc3c(=O)n(-c4ccccc4)[nH]c32)s1
inactive: CCRF-CEM > 100 µM | DMS-273 > 100 µM | HCT-116 > 100 µM | HOP-62 > 100 µM | HOP-92 > 100 µM | IGROV-1 > 100 µM | M19-MEL > 100 µM | Malme-3M > 100 µM | NCI-H460 > 100 µM | OVCAR-3 > 100 µM | SK-MEL-28 > 100 µM | SK-MEL-2 > 100 µM | SN12C > 100 µM

C[Si](C)(C)[C@@]1([Se]c2ccccc2)CC[C@@H]1C(=O)c1ccccc1
inactive: 786-0 > 100 µM | CCRF-CEM 27.7 µM | DMS-273 59.3 µM | HCT-116 33.6 µM | HOP-62 > 100 µM | IGROV-1 > 100 µM | M19-MEL 32.5 µM | Malme-3M 70 µM | NCI-H460 98.9 µM | OVCAR-3 84.1 µM | SF-295 51.3 µM | SK-MEL-28 55.2 µM | SK-MEL-2 23.7 µM | SK-MEL-5 18.5 µM | SN12C 61.4 µM
